From US7811551B2, “Imaging agents” (GE Healthcare AS, priority 2003, dated 2010)
pKi: −log10 of the molar value. Starred links: 1 amine or outer side, 2 acyl side, 3 side chain; linkers in the order of their positions; H or OH if unused. Positions of bridges follow the written chain, without caps; N, C: chain ends. Residues, ends and D or L forms follow the SMILES beside them. *: point of attachment. X1 = O=C(COCC(=O)*)NCCOCCOCCOCCOCCOCCNC(=O)CSCCCF; CH2 = C([*:1])[*:2]

Target: T1, ανβ3 integrin receptor (Homo sapiens, UniProt P05106+P06756)
T1 construct: Using cell membrane preparations known to express the ανβ3 integrin receptor; endogenous in cells
Experiment: competitive binding with 125I-echistatin on cell membrane preparations
Conditions: cell membrane preparations expressing ανβ3 integrin receptor; 125I-echistatin as radioligand; Ki calculated using Prism software
Experimental: Using cell membrane preparations known to express the ανβ3 integrin receptor, competitive binding studies were carried out using ^125I-echistatin and the F-labelled peptides as competing ligand. Binding curves were obtained and Ki's calculated using Prism™ software.

In the case of `N=C(N)NCCC[C@@H]1NC(=O)[C@@H]2CSCSC[C@H](NC(=O)[C@H](CC(=O)O)NC(=O)CNC1=O)C(=O)N[C@@H](Cc1ccccc1)C(=O)N[C@H](C(N)=O)CSCC(=O)N[C@@H](CCCCNC(=O)COCC(=O)NCCOCCOCCOCCOCCOCCNC(=O)CSCCCF)C(=O)N2` [Example 1] ({CH2CO}-K(X1)CRGDCFC-NH2; linker 2-6 via CH2; thioether N-8), the pKi was 8.15.
